Marks after values point to notes of the source that are not given here.
How the values were obtained:
[1] = tested on: bovine microtubule-associated protein (MAP)-rich tubulin; format: biochemical
Method in brief: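 MAP-rich bovine tubulin at 1.5 mg/ml final was dissolved in cold PEM buffer (80 mM Na-PIPES pH 6.9, 1 mM MgCl2, 1 mM EGTA) with 1 mM GTP, then centrifuged at 12,000×g for 10 min at 4° C. Aliquots of 100 μl were added quickly to a low-volume 96-well plate holding duplicate 10 μl compound samples. Absorbance at 340 nm was read each minute for 60 min at 24° C.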

KB cells = assay: cells; format: cell-based; details: for IC50: 3 days, SRB
Experimental: (§1) Cell Survival Assay: Standard Pharmacological Test Procedure. […] Compounds are incubated with cells for 3 days.

KB85 = assay: cells; format: cell-based; details: for IC50: 3 days, SRB
Experimental: as §1

KBV1 = assay: cells; format: cell-based; details: for inhibition at 3 µM: KB-V1, 3000 nM; for IC50: 3 days, SRB
Experimental: as §1

Colo205 = assay: Cell survival assay (SRB), Colo205; format: cell-based; details: Colo205 cells, 3 days
Experimental: as §1

Compound	Tubulin Polym. % inhibition at 0.3 uM [1]	IC50 (KB cells; Homo sapiens, KB, 72 h)	IC50 (KB85; 72 h)	inhibition at 3 µM (KBV1; Homo sapiens)	IC50 (Colo205; Homo sapiens, COLO 205, 72 h)	IC50 (KBV1; Homo sapiens, KB-V1, 72 h)	further results
CN[C@H](C(=O)N[C@H](C(=O)N(C)[C@H](/C=C/c1nnn[nH]1)C(C)C)C(C)(C)C)C(C)(C)c1ccccc1 [Example 86, (2S)-N-[(1S,2E)-1-isopropyl-3-(1H-tetraazol-5-yl)-2-propenyl]-N,3,3-trimethyl-2-{[(2S)-3-methyl-2-(methylamino)-3-phenylbutanoyl]amino}butanamide]	31%	1150 nM	1820 nM	5%	71 nM		
CSC(C(=O)N[C@H](C(=O)N(C)[C@H](/C=C(\C)C(=O)O)C(C)C)C(C)(C)C)C(C)(C)c1ccccc1 (stereo partly drawn) [Example 102, (E,4S)-4-[((2S)-3,3-dimethyl-2-{[3-methyl-2-methylsulfanyl-3-phenylbutanoyl]amino}butanoyl)(methyl)amino]-2,5-dimethyl-2-hexenoic acid]	79%	693 nM	1150 nM		280 nM		KBV1 % inhibition @6000 (KBV1): 40%@6000
CN[C@H](C(=O)N[C@H](C(=O)N(C)[C@H](/C=C(\C)C(=O)NO)C(C)C)C(C)(C)C)C(C)(C)c1ccccc1 [Example 25, (E,4S)-4-[((2S)-3,3-dimethyl-2-{[(2S)-3-methyl-2-(methylamino)-3-phenylbutanoyl]amino}butanoyl)(methyl)amino]-N-hydroxy-2,5-dimethyl-2-hexenamide]	75%	39 nM	227 nM	7%	20 nM		
C/C(=C\[C@H](C(C)C)N(C)C(=O)[C@@H](NC(=O)C(C(C)(C)c1ccccc1)S(C)(=O)=O)C(C)(C)C)C(=O)O (stereo partly drawn) [Example 103, (E,4S)-4-[((2S)-3,3-dimethyl-2-{[3-methyl-2-methylsulfonyl-3-phenylbutanoyl]amino}butanoyl)(methyl)amino]-2,5-dimethyl-2-hexenoic acid]	80%	1750 nM	1660 nM	5%	760 nM		inhibition at 3 µM (KB85; 3000 nM): 30%
(E,4S)-4-[((2S)-2-{[(2S)-2-azido-3-methyl-3-phenylbutanoyl]amino}-3,3-dimethylbutanoyl)(methyl)amino]-2,5-dimethyl-2-hexenoic acid and (E,4S)-4-[((2S)-2-{[(2R)-2-azido-3-methyl-3-phenylbutanoyl]amino}-3,3-dimethylbutanoyl)(methyl)amino]-2,5-dimethyl-2-hexenoic acid [Example 94]	73%						IC50 (KB cells): 1300 nM; IC50 (KB85): 1330 nM; KBV1 % inhibition @ 3000 nM (KBV1; 3000 nM): 30%(2); IC50 (Colo205): 460 nM
C/C(=C\[C@H](C(C)C)N(C)C(=O)[C@@H](NC(=O)[C@H](O)C(C)(C)c1ccccc1)C(C)(C)C)C(=O)O [Example 108, (E,4S)-4-[{N-[(2R)-2-hydroxy-3-methyl-3-phenylbutanoyl]-3-methyl-L-valyl}(methyl)amino]-2,5-dimethyl-2-hexenoic acid]	21%	> 3000 nM	> 3000 nM		> 1000 nM	> 3000 nM	
CCOC(=O)/C(C)=C/[C@H](C(C)C)N(C)C(=O)[C@@H](NC(=O)[C@@H](C)C(C)(C)c1ccccc1)C(C)(C)C [Example 91, Ethyl (E,4S)-4-[((2S)-2-{[(2S)-2,3-dimethyl-3-phenylbutanoyl]amino}-3,3-dimethylbutanoyl)(methyl)amino]-2,5-dimethyl-2-hexenoate]			> 3000 nM		> 1000 nM	> 3000 nM	Tubulin Polym. % inhibition at 2 uM ([1]; 2 uM): 84**** %; inhibition at 3 µM (KB cells; Homo sapiens, 72 h, 3000 nM): 21%
C/C(=C\[C@H](C(C)C)N(C)C(=O)[C@@H](NC(=O)C(Cc1ccccc1)C(C)(C)c1ccccc1)C(C)(C)C)C(=O)O (stereo partly drawn) [Example 96, (E,4S)-4-[((2S)-3,3-dimethyl-2-{[3-methyl-2-benzyl-3-phenylbutanoyl]amino}butanoyl)(methyl)amino]-2,5-dimethyl-2-hexenoic acid]	46%	846 nM	1120 nM	11%	340 nM	2630 nM	
CCC(C(=O)N[C@H](C(=O)N(C)[C@H](/C=C(\C)C(=O)O)C(C)C)C(C)(C)C)C(C)(C)c1ccccc1 (stereo partly drawn) [Example 100, (E,4S)-4-[((2S)-3,3-dimethyl-2-{[3-methyl-2-ethyl-3-phenylbutanoyl]amino}butanoyl)(methyl)amino]-2,5-dimethyl-2-hexenoic acid]	54%	957 nM	1150 nM		190 nM	5260 nM	
CO[C@@H](C(=O)N[C@H](C(=O)N(C)[C@H](/C=C(\C)C(=O)O)C(C)C)C(C)(C)C)C(C)(C)c1ccccc1 [Example 106, (E,4S)-4-[{N-[(2R)-2-methoxy-3-methyl-3-phenylbutanoyl]-3-methyl-L-valyl}(methyl)amino]-2,5-dimethyl-2-hexenoic acid]	54%	1420 nM	1230 nM	22%	930 nM		
CCOC(=O)/C(C)=C/[C@H](C(C)C)N(C)C(=O)[C@@H](NC(=O)C(OC)C(C)(C)c1ccccc1)C(C)(C)C (stereo partly drawn) [Example 104, Ethyl (E,4S)-4-[{(2S)-2-[(2-methoxy-3-methyl-3-phenylbutanoyl)amino]-3,3-dimethylbutanoyl}(methyl)amino]-2,5-dimethyl-2-hexenoate]	38%	1730 nM	2130 nM		> 1000 nM	2400 nM	IC50 (KB cells): 3000 nM; IC50 (KB85): 3000 nM; IC50 (KBV1): 3000 nM
C=CCC(C(=O)N[C@H](C(=O)N(C)[C@H](/C=C(\C)C(=O)O)C(C)C)C(C)(C)C)C(C)(C)c1ccccc1 (stereo partly drawn) [Example 98, (E,4S)-4-[((2S)-3,3-dimethyl-2-{[3-methyl-2-allyl-3-phenylbutanoyl]amino}butanoyl)(methyl)amino]-2,5-dimethyl-2-hexenoic acid]	63%	1150 nM	1200 nM		270 nM		KBV1 % inhibition @6000 (KBV1): 42%@6000
C/C(=C\[C@H](C(C)C)N(C)C(=O)[C@@H](NC(=O)[C@@H](O)C(C)(C)c1ccccc1)C(C)(C)C)C(=O)O [Example 107, (E,4S)-4-[{N-[(2S)-2-hydroxy-3-methyl-3-phenylbutanoyl]-3-methyl-L-valyl}(methyl)amino]-2,5-dimethyl-2-hexenoic acid]	21%	> 3000 nM	> 3000 nM		> 1000 nM	> 3000 nM	
CN[C@H](C(=O)N[C@H](C(=O)N(C)[C@H](/C=C(\C)C=O)C(C)C)C(C)(C)C)C(C)(C)c1ccc([S+](C)C)cc1.O=C(O)C(F)(F)F [Example 83, 4-(dimethylsulfonio)-N,β,β-trimethyl-L-phenylalanyl-N^1-[(1S,2E)-1-isopropyl-3-methyl-4-oxo-2-butenyl]-N^1,3-dimethyl-L-valinamide trifluoroacetic acid]	0%				46 nM	2400 nM	IC50 (KBV1; trifluoroacetic acid): > 3000 nM
